Assay [1] can be described thus: viability of uninfected HEp-2 cells – cell-based, HTS, cytotoxicity control for RSV inhibitor project, dose response (AID 2410). Conditions: human respiratory syncytial virus. The class given is functional.
For another assay, the target named is T1, Caspase-3 (Homo sapiens, UniProt P42574).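 Further: Dose-response selectivity test against caspase-3 for candidate inhibitors of sentrin-specific proteases (SENPs).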
T1 sequence (P42574 whole entry): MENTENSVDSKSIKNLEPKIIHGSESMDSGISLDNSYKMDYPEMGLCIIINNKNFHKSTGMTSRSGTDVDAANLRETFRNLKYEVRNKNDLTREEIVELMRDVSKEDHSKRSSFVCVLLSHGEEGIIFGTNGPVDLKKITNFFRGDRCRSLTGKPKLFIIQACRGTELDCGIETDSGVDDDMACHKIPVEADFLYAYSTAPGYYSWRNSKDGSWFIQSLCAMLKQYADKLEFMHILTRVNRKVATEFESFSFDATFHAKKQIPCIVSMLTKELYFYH
The class given is functional.

The target in assay [2] is T2, Sentrin-specific protease 7 (Homo sapiens, UniProt Q9BQF6).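 Further: Luminescence-based dose-response confirmation of ultra-high-throughput screening hits, measuring inhibition of SENP7.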
T2 sequence (Q9BQF6 whole entry): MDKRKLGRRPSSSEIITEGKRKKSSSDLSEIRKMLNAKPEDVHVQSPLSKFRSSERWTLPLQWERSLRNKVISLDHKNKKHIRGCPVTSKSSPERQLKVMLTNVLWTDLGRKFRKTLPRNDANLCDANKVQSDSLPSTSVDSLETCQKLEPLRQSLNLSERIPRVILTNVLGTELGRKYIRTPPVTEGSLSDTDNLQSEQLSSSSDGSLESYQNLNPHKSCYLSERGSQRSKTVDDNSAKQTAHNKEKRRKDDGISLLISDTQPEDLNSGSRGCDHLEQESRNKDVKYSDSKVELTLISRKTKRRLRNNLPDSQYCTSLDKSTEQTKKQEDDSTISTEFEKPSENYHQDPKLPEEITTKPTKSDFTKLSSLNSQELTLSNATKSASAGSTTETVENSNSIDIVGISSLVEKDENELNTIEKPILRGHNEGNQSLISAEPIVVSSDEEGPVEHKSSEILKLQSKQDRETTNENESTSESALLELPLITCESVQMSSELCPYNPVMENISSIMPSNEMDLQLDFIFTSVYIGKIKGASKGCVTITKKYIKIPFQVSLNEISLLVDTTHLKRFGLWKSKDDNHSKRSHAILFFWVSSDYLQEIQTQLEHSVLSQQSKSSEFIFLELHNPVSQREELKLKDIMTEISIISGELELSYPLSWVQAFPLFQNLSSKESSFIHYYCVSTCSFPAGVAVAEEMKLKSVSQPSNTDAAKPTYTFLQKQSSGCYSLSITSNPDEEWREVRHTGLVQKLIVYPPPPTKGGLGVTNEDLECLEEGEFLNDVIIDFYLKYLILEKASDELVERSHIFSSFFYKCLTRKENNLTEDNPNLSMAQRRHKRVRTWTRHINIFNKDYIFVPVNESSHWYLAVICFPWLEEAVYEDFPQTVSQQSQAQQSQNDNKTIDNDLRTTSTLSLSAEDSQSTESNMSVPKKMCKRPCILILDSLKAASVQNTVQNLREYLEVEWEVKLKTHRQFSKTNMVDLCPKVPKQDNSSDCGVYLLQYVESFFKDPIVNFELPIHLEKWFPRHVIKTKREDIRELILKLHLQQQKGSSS
The class given is functional.

The target in assay [3] is T3, Sentrin-specific protease 6 (Homo sapiens, UniProt Q9GZR1).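 Further: Luminescence-based dose-response confirmatory assay of SENP6 inhibition, following up an ultra-high-throughput screen.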
T3 sequence (Q9GZR1 whole entry): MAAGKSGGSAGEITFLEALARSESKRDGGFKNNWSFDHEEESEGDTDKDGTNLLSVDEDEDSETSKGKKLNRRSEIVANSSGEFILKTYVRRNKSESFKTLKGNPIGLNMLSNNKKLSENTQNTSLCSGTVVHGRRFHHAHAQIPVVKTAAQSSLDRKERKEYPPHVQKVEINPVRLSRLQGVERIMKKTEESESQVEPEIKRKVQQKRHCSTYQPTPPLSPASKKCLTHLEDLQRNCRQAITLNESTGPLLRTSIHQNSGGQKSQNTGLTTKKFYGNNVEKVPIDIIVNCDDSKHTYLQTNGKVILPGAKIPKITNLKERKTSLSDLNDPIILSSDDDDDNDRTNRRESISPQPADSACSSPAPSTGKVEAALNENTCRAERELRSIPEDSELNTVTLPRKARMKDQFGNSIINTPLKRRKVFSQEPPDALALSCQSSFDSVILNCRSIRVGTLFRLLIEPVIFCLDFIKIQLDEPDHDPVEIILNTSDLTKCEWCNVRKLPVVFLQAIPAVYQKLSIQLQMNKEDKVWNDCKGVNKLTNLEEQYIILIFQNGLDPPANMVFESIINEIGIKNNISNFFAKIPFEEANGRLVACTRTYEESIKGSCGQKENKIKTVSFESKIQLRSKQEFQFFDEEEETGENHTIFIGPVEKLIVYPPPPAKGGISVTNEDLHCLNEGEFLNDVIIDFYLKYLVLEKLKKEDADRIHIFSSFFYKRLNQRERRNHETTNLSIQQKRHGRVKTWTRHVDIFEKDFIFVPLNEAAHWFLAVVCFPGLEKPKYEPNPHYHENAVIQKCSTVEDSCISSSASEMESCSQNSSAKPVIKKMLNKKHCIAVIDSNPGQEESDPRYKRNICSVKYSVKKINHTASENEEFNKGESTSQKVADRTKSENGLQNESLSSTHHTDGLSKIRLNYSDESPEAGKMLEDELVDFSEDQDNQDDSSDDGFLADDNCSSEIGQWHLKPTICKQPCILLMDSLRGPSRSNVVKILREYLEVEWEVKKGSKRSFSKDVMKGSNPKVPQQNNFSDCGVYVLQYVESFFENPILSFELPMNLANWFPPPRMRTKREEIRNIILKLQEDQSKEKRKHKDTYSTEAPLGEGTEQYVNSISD
The assay is classed as functional.

The target of assay [4] is T4, Sentrin-specific protease 8 (Homo sapiens, UniProt Q96LD8).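 Further: luminescence read-out of SENP8 inhibition, dose-response confirmation following an ultra-high-throughput screen.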
T4 sequence (Q96LD8 whole entry): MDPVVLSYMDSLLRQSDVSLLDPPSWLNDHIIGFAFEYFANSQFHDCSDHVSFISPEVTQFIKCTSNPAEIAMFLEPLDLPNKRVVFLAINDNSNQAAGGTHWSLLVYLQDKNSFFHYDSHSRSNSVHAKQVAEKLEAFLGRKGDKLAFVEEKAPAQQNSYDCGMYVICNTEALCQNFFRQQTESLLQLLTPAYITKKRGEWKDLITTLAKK
The class given is functional.

For assay [5], the target named is Induced myeloid leukemia cell differentiation protein Mcl-1 (Homo sapiens, UniProt Q07820). The class given is functional.
Chain of Induced myeloid leukemia cell differentiation protein Mcl-1 (Q07820 whole entry): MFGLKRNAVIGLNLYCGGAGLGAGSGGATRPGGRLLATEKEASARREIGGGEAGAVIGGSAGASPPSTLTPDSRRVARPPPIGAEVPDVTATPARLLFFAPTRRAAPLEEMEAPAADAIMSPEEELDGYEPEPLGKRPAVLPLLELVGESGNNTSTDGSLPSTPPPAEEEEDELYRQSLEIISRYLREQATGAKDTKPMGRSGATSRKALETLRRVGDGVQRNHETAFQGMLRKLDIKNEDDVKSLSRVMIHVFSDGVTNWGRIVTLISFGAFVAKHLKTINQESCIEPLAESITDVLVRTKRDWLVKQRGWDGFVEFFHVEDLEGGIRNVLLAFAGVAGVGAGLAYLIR
The next assay has as its system INS1. The assay is described as follows: INS-1E survival protection against cytokine death – cell-based, luminescence, retest, dose response (AID 449756).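 Further: cell death triggered by IL-1 beta plus TNF-alpha plus IFN-gamma mixture; protective hits raise ATP signal compared with cytokine alone wells.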 The class given is functional. Conditions: Rattus norvegicus.
For assay [6], the target named is T5, Short transient receptor potential channel 4 (Mus musculus, UniProt Q9QUQ5).
T5 sequence (Q9QUQ5 whole entry): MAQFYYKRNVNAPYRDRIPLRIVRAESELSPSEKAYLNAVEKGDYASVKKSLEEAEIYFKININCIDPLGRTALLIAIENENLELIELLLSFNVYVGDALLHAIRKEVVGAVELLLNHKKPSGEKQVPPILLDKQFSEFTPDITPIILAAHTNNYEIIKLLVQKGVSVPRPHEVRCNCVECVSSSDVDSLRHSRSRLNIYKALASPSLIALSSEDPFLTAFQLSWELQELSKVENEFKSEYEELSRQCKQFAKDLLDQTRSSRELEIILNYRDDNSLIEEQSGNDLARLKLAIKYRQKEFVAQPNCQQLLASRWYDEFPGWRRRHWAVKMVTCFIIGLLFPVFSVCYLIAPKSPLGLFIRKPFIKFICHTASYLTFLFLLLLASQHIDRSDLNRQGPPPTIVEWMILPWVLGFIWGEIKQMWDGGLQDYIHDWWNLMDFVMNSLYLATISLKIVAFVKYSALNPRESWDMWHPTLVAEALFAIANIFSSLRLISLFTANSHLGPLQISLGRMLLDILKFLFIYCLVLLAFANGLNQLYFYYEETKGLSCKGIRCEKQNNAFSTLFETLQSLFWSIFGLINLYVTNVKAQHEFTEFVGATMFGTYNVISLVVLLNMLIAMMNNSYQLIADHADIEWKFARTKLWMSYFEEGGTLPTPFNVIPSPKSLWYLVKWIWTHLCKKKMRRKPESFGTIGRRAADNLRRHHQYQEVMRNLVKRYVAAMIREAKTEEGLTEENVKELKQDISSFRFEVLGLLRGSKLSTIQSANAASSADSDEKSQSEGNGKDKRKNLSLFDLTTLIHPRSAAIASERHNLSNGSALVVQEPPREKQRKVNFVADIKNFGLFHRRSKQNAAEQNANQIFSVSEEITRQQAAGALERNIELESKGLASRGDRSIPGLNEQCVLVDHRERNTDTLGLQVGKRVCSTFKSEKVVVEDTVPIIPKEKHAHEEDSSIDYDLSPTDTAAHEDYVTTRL
Put plainly: calcium entry via TRPC4 opening agents – cell-based, HEK293 TRPC4/mu-opioid, Fluo-4 calcium, dose response (AID 434937). The class given is functional.

In assay [7] the target is T6, Corticotropin-releasing factor receptor 2/Corticotropin-releasing factor-binding protein (Homo sapiens, UniProt P24387+Q13324).
T6 sequence (Q13324 whole entry): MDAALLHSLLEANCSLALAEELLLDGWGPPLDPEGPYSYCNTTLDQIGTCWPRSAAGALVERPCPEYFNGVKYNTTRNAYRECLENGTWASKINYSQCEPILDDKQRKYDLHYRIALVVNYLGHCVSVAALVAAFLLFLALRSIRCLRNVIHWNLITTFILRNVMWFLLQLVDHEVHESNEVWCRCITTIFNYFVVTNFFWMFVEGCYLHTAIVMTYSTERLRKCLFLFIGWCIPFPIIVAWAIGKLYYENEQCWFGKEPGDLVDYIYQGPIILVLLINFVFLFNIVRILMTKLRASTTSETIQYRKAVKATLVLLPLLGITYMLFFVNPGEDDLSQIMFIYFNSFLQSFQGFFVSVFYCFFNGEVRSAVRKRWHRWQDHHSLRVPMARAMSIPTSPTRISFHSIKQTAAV
T6 sequence (P24387 whole entry): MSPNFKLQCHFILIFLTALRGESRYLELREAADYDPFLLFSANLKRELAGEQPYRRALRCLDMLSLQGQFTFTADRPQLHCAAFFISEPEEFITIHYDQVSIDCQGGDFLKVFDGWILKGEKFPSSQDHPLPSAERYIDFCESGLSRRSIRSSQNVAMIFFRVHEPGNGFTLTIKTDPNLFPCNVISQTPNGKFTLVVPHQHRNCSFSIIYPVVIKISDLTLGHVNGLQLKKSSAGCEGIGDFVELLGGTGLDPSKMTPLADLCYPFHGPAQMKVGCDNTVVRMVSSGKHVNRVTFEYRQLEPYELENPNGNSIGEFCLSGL
The assay is described as follows: activators of CRF receptor 2 with binding protein – uHTS hits, confirmation (AID 602473). The assay is classed as functional. The settings on record: read-out: EC50_Mean.

A further assay deals with Vero. Put plainly: cells. The assay is classed as functional. The settings on record: Chlorocebus sabaeus.
Assay [8] addresses Glyceraldehyde-3-phosphate dehydrogenase (Homo sapiens, UniProt P04406).

SMILES strings stand for the structures. Activity calls are given as the source filed them.

Chain of Glyceraldehyde-3-phosphate dehydrogenase (P04406 whole entry): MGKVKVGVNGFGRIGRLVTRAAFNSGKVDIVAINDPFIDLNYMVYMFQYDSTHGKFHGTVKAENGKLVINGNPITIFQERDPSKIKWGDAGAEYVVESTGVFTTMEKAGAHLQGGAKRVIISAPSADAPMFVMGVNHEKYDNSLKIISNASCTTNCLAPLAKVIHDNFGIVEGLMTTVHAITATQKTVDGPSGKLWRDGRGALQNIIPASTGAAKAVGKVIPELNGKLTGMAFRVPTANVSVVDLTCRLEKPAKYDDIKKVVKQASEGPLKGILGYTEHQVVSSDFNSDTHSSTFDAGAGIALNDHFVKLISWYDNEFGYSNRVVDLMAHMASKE

Take `C=CCn1c2ccccc2c(=O)c2cc(C#Cc3ccccn3)ccc21`: the CC50 in [1] was 25.1 µM (active). For the same molecule, the IC50 at Caspase-3 was 17.5 µM (active); in assay [2] it was 5.93 µM (active); in [3] it was 14.1 µM (active); in assay [4], 20.8 µM (active).
As to `O=c1c2ccccc2nc(-c2ccco2)n1-c1cccnc1`, the IC50 in assay [5] is reported as < 400 nM (not active).
For the molecule `O=C(Nc1ccc(-c2noc(-c3cccs3)n2)cc1)c1cccnc1`, the IC50 is 54.8 µM (active) on Caspase-3, 7.2 µM (active) in assay [2], 76.2 µM (active) in assay [3] and > 100 µM (inactive) in [4]. Moreover, in the assay on INS1, the AC50 was 6.36 µM (active).
`CCO/C=C1\C(=O)N(c2ccccc2)C(=O)c2ccccc21`: the IC50 on Caspase-3 is 6.63 µM (active); in assay [2], 36.9 µM (active); in [3], 16.6 µM (active); in [4], 50.7 µM (active).
As to `COc1ccc(NC(=O)c2csc3c2CCCC3)cc1`, the concentration for half-maximal inhibition (IC50) is 19.2 µM (active) at Caspase-3, 7.25 µM (active) in assay [2], > 100 µM (inactive) in [3] and > 100 µM (inactive) in [4].
In the case of `COc1cc(OC)cc(C(=O)N[C@H](C(=O)OCC(=O)NC(C)c2ccccc2)C(C)C)c1` (stereo partly drawn), the figures for the EC50 in assay [6] and in assay [7] were 6.68 µM (active) and 16.4 µM (active), respectively.
`CSc1ccc(/C=C/C(=O)c2ccc(O)cc2)cc1`: the IC50 is 19.9 µM (active) at Caspase-3, 4.77 µM (active) in [2], 9.4 µM (active) in assay [3] and 13.4 µM (active) in assay [4]. Also, the CC50 in the assay with Vero is 23.8 µM (active).
Regarding `Cn1c2ccccc2c(=O)c2c(=O)n(C3CCCCCC3)c(C3CCCCC3)nc21`, the EC50 in [7] was 4.04 µM (active).
In the case of `CCN1CCN(C2=C(Cl)C(=O)N(c3ccc(C(F)(F)F)cc3)C2=O)CC1`, the IC50 in assay [8] was > 50 µM (inconclusive).

Source of the values: ChEMBL document CHEMBL1201862, “PubChem BioAssay data set” (2004).
